# Experimental data taken from patent US4163799A, “Psychostimulant compounds” (Union Chimique Continentale U.C.C., priority 1975, dated 1979).
# Structures can show the parent of a compound that is named as a salt.
# Legend:
# [1] = Motor activity in the mouse (photoelectric cell actimeter); format: in vivo, mouse (male, Swiss NMRI)
# Method: (§1) All the experiments described below were carried out on male rats weighing between 170 and 220 g (Wistar AF strain) and male mice weighing between 18 and 23 g (Swiss NMRI strain), unless indicated to the contrary. All the experiments were conducted in a constant-temperature laboratory (22±1° C.). […] Unless indicated to the contrary 10 animals per batch were always used.
# The motor activity was determined with the aid of photoelectric cell actimeters (Boissier and Simon, Arch. int. Pharmacodyn. 1965, 158, 212-221). Twelve animals per batch were always used as a minimum.
# [2] = Antioxotremorine activity test; format: in vivo, mouse (male, Swiss NMRI); settings: 8, 16, 32 mg/kg orally or ip; oxotremorine 0.5 mg/kg IP
# Method: as §1
# In mice which received doses of 8, 16, and 32 mg/kg of NaAHDH orally or intraperitoneally the effects of oxotremorine (0.5 mg/kg IP) were unchanged, in terms of hyperthermia, trembling, lacrimation, hypersalivation, and defecation.
# [3] = 64 mg/kg IP, ** significant at 0.005
compound,measurement,setting,value
"CC(O)CC(c1ccccc1)C(C(=O)O)c1ccccc1 (centres unmarked) [NaAHDH, Sodium Salt of 5-Hydroxy-2,3-Diphenyl-Hexanoic Acid]","number of beams interrupted, 30 + 5 min",[1]; 16 mg/kg IP,44
same,"number of beams interrupted, 30 + 10 min",[1]; 16 mg/kg IP,90
same,"number of beams interrupted, 30 + 15 min",[1]; 16 mg/kg IP,133
same,"number of beams interrupted, 30 + 20 min",[1]; 16 mg/kg IP,163
same,"number of beams interrupted, 30 + 25 min",[1]; 16 mg/kg IP,195
same,"number of beams interrupted, 30 + 30 min","[1]; 16 mg/kg IP, * significant at 0.05",214 ± 28
same,"number of beams interrupted, 30 min",[1]; 16 mg/kg IP,376 ± 31
same,"number of beams interrupted, 30 + 5 min",[1]; 32 mg/kg IP,65
same,"number of beams interrupted, 30 + 10 min",[1]; 32 mg/kg IP,118
same,"number of beams interrupted, 30 + 15 min",[1]; 32 mg/kg IP,183
same,"number of beams interrupted, 30 + 20 min",[1]; 32 mg/kg IP,242
same,"number of beams interrupted, 30 + 25 min",[1]; 32 mg/kg IP,285
same,"number of beams interrupted, 30 + 30 min","[1]; 32 mg/kg IP, test t 2,395",325 ± 26
same,"number of beams interrupted, 30 min",[1]; 32 mg/kg IP,450 ± 39
same,"number of beams interrupted, 30 + 5 min",[1]; 64 mg/kg IP,90
same,"number of beams interrupted, 30 + 10 min",[1]; 64 mg/kg IP,195
same,"number of beams interrupted, 30 + 15 min",[1]; 64 mg/kg IP,297
same,"number of beams interrupted, 30 + 20 min",[1]; 64 mg/kg IP,396
same,"number of beams interrupted, 30 + 25 min",[1]; 64 mg/kg IP,429
same,"number of beams interrupted, 30 + 30 min",[1]; [3],558 ± 56
same,"number of beams interrupted, 30 min",[1]; [3],580 ± 47
same,motor activity,"[1]; 32 and 64 mg/kg ip, significant for the first 30 minutes, regular and constant up to 60th minute",increase in motor activity
same,"effects of oxotremorine (hyperthermia, trembling, lacrimation, hypersalivation, defecation)",[2],unchanged
